Reference: PubChem BioAssay (NCI)
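Tested at 5 concentrations; 48 h exposure; 96-well plates; endpoints linearly interpolated, else capped at highest concentration. Abbreviation: GI50, concentration required for 50% inhibition of growth. TGI is the concentration that stops growth completely.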

Assays:
Experiment in all cases: growth of human tumour cells (NCI), 48 h
[1] = system: OVCAR-5 ovarian
[2] = system: SN12C renal
[3] = system: MALME-3M melanoma
[4] = system: NCI-H522 lung
[5] = system: NCI-H226 lung
[6] = system: A549 NSCLC
[7] = system: OVCAR-8 ovarian
[8] = system: LOX IMVI melanoma
[9] = system: IGROV1 ovarian
[10] = system: RXF 393 renal

| SMILES | GI50 [1] | TGI [1] | GI50 [2] | TGI [2] | GI50 [3] | TGI [3] | GI50 [4] | TGI [4] | GI50 [5] | TGI [5] | GI50 [6] | TGI [6] | GI50 [7] | TGI [7] | GI50 [8] | TGI [8] | GI50 [9] | TGI [9] | GI50 [10] | TGI [10] |
| --- | --- | --- | --- | --- | --- | --- | --- | --- | --- | --- | --- | --- | --- | --- | --- | --- | --- | --- | --- | --- |
| N#Cc1c(NCc2ccccc2)nc(NCc2ccccc2)c(C#N)c1-c1cccc(O)c1 | 21.3 µM | 48 µM | 2.31 µM | 6.69 µM | 10.1 µM | 32.5 µM | 5.89 µM | 33.1 µM | 2.91 µM | 7.86 µM | 13.3 µM | 63.5 µM | 19.2 µM | 52.2 µM | 2.96 µM | 11.5 µM | 19.7 µM | 41.1 µM | 13.8 µM | 34.9 µM |
| [N-]=[N+]=Nc1c(Br)c(=O)[nH]c(=O)n1COCCO | – | > 100 µM | – | > 100 µM | – | > 100 µM | – | > 100 µM | – | – | – | > 100 µM | – | > 100 µM | – | > 100 µM | – | > 100 µM | – | > 100 µM |
| O=C(Nc1ccc(-c2ccnc(Nc3ccc(N4CCOCC4)cc3)n2)cc1)C1CCCN1 (stereo not drawn) | 14.6 µM | 30.7 µM | 4.47 µM | 44 µM | 6.71 µM | 23.1 µM | 6.23 µM | 21.1 µM | 6.69 µM | 52.5 µM | 5.66 µM | 35.3 µM | 5.09 µM | 28.3 µM | 2.27 µM | 13.9 µM | 5.16 µM | 25.8 µM | 2.23 µM | 9.36 µM |
| Cc1ccc(/C=C2\CN(Cc3cn(CCNc4ccnc5cc(Cl)ccc45)nn3)C/C(=C\c3ccc(C)cc3)C2=O)cc1 | 1.8 µM | 3.54 µM | 1.93 µM | 3.95 µM | 1.7 µM | 3.47 µM | 1.98 µM | 3.66 µM | 2.03 µM | 4.8 µM | 1.8 µM | 3.73 µM | 2.03 µM | 4.85 µM | 1.76 µM | 3.36 µM | 1.92 µM | 3.73 µM | 1.67 µM | 3.36 µM |
| COc1cc2c3c(c1OC)Oc1ccc(cc1)CC1c4c(cc(OC)c(OC)c4Oc4ccc(cc4)CC3N(C)CC2)CCN1C (stereo not drawn) | – | > 100 µM | – | 49.7 µM | – | 34.5 µM | – | 25.8 µM | – | 55.5 µM | – | 70.4 µM | – | 60 µM | – | 34.9 µM | – | 67.8 µM | – | 40.3 µM |
| CCCNc1cccc(-n2ncc3c(N/N=C/c4ccncc4)ncnc32)c1 | > 25 µM | > 25 µM | > 25 µM | > 25 µM | > 7.75 µM | > 25 µM | 1.44 µM | > 25 µM | > 16.5 µM | > 25 µM | > 7.61 µM | > 25 µM | 11.7 µM | > 25 µM | – | – | – | – | 1.07 µM | > 25 µM |
| N#Cc1ccc2c(c1)C(=O)c1c-2n(CCCN=[N+]=[N-])c(=O)c2cc([N+](=O)[O-])ccc12 | > 50 µM | > 50 µM | 47.2 µM | > 50 µM | > 50 µM | > 50 µM | 37.4 µM | > 50 µM | 40 µM | > 50 µM | – | – | > 50 µM | > 50 µM | 4.85 µM | > 50 µM | 12.4 µM | > 50 µM | > 50 µM | > 50 µM |
